Tested on: MAGI cells cytotoxicity, 2% serum, % cell control
Test: MAGI cell cytotoxicity, R5 antiviral format, dose response, cytotoxicity control for HIV-1 antiviral lead project, CCR5-tropic MAGI assay, 2% serum, set 4 (AID 504576)

SMILES | CC50
Cc1c2c(=O)n(-c3nc4ccccc4s3)nc-2cc(O)n1CCc1cccs1 | 74.8 µM
Cc1c2c(=O)n(-c3nc4ccccc4s3)nc-2cc(O)n1CCC(C)C | 65 µM
COc1ccc(CCn2c(O)cc3nn(-c4nc5ccccc5s4)c(=O)c-3c2C)cc1 | 13.8 µM
Cc1c2c(=O)n(-c3nc4ccccc4s3)nc-2cc(O)n1Cc1ccccc1Cl | 32.9 µM
COc1ccc(Cn2c(O)cc3nn(-c4nc5ccccc5s4)c(=O)c-3c2C)cc1 | 41.1 µM
Cc1c2c(=O)n(-c3nc4ccccc4s3)nc-2cc(O)n1CCc1ccc(O)cc1 | 20.5 µM
COc1ccccc1Cn1c(O)cc2nn(-c3nc4ccccc4s3)c(=O)c-2c1C | 43.2 µM
